Data set [1] can be described thus: (§1) Cytotoxicity against human 9KB cells. In kind it is functional. As to conditions: read-out: ED50 (the source's name).
In data set [2] the test system is L1210. Nature of the data set: Antitumor activity against mouse L1210 cells allografted in mouse at 100 to 400 mg/kg. The format is functional, organism-based.
Another data set deals with HeLa. Put plainly: Cytotoxicity against human HeLa cells at 5 ug/ml. In kind it is functional, cell-based.
Data set [3] has as its system Rattus norvegicus. Nature of the data set: Toxicity in rat Walker 256 cells allografted rat at 240 mg/kg. The format is organism-based. Details: dose 240 mg/kg. As to conditions: in vivo.
For data set [4], the system named is W256. Nature of the data set: Antitumor activity against rat Walker 256 cells allografted in rat assessed as inhibition of tumor growth at 120 mg/kg. The note with it: read-out: TGI. In kind it is functional.
Data set [5] concerns L1210. Nature of the data set: Antitumor activity against mouse L1210 cells allografted in mouse. In kind it is functional.
For another data set, the system named is 9KB. Described as §1. In kind it is functional.
Data set [6] concerns W256. Nature of the data set: Antitumor activity against rat Walker 256 cells allografted in rat assessed as inhibition of tumor growth at 18.75 mg/kg. As to conditions: read-out: TGI. The format is functional.
The subject of data set [7] is Rattus norvegicus. Put plainly: Toxicity in rat Walker 256 cells allografted rat at 37.5 mg/kg. In kind it is organism-based. Also noted: dose 37.5 mg/kg. As to conditions: in vivo.
Data set [8] deals with W256. Nature of the data set: Antitumor activity against rat Walker 256 cells allografted in rat. In kind it is functional.
The species named for data set [9] is Rattus norvegicus. Put plainly: Toxicity in rat Walker 256 cells allografted rat. In kind it is organism-based.

Our source for the EC50, Activity and inhibition in vivo values is ChEMBL document CHEMBL3271996, “Potential antitumor agents. Synthesis of bifunctional alpha-methylene-gamma-butyrolactones” (J Med Chem, 1976).

In brackets after ≈: the same amount, converted by molar mass. Activity calls are given as the source filed them. The calls are words filed in the database; no cut-off is given here.

Regarding `C=C1CCOC1=O` [TULIPALINE A], the EC50 in data set [1] came to 16 µg/mL (≈ 163 µM).

For `O=C1OCC/C1=C\OCCCO/C=C1\CCOC1=O`, in the data set with L1210 [2], the result was inactive.

For `O=C1OCC/C1=C\OC(=O)c1ccccc1`, the result with L1210 [2] was inactive.

Regarding `CC1(O/C=C2\CCOC2=O)C=CC(=O)O1` (stereo not given), the outcome in the data set on HeLa was Active. In addition, the Activity entry with Rattus norvegicus [3] is listed as “Toxic”. Besides, the inhibition in vivo at 120 mg/kg with W256 [4] came to 27%.

For `C=C1CC(CCCCCC2CC(=C)C(=O)O2)OC1=O` (stereo not given), the EC50 in data set [1] is 15 µg/mL (≈ 56.7 µM). Further, the outcome in the data set with L1210 [5] was inactive.

On to `O=C(Cc1ccccc1)O/C=C1\CCOC1=O`, for which the outcome with L1210 [2] and with 9KB was inactive.

`O=C1OCC/C1=C\OCCCCO/C=C1\CCOC1=O`: the outcome in the data set on L1210 [2] and with 9KB was inactive.

`O=C1OCC/C1=C\OCCCCCO/C=C1\CCOC1=O`: the outcome in the data set on L1210 [2] was inactive.

As for `C=C1CC(CCCCC2CC(=C)C(=O)O2)OC1=O` (stereo not given), the EC50 in [1] is 32 µg/mL (≈ 128 µM). The result with L1210 [5] was inactive.

Turning to `O=C1OCC/C1=C\OCCO/C=C1\CCOC1=O`, the outcome with L1210 [2] and in the data set on 9KB was inactive.

`O=C1OCC/C1=C\OCCCCCCCCCCO/C=C1\CCOC1=O`: the result in the data set with L1210 [2] was inactive.

Consider `C=C1CC(CCCCCCC2CC(=C)C(=O)O2)OC1=O` (stereo not given), for which, in data set [1], the EC50 came out at 7 µg/mL (≈ 25.1 µM). Moreover, the outcome in the data set on L1210 [5] was inactive.

For the molecule `Cc1ccc(S(=O)(=O)O/C=C2\CCOC2=O)cc1`, the result in the data set on L1210 [2] and in the data set on 9KB was inactive.

Take `C=C1CC(CCCC2CC(=C)C(=O)O2)OC1=O` (stereo not given): the EC50 in data set [1] came out at 4 µg/mL (≈ 16.9 µM). Moreover, the outcome in the data set on L1210 [5] was inactive. Moreover, the inhibition in vivo at 18.75 mg/kg in the data set with W256 [6] worked out at 45%. The Activity result in the data set on Rattus norvegicus [7] is given as “Toxic”.

Consider `O=C1OCC/C1=C\OCCCCCCO/C=C1\CCOC1=O`, for which the outcome in the data set with L1210 [2], in the data set on 9KB and in the data set with W256 [8] was inactive. Further, in the data set listed under Rattus norvegicus [9], the Activity entry is “Non-toxic”.
